Source: US9273057B2 (Bristol-Myers Squibb Company, priority 2012, dated 2016)
Counter-ions that a name gives are not always drawn.

target: CK2A1 (CK2α/β) (Homo sapiens, UniProt P68400); assay: CK2 kinase assay, CK2A1 (CK2α/β); format: biochemical; details: Table A; read-out: CK2A1 (CK2α/β) (IC50)
Sequence (P68400 whole entry, species assumed): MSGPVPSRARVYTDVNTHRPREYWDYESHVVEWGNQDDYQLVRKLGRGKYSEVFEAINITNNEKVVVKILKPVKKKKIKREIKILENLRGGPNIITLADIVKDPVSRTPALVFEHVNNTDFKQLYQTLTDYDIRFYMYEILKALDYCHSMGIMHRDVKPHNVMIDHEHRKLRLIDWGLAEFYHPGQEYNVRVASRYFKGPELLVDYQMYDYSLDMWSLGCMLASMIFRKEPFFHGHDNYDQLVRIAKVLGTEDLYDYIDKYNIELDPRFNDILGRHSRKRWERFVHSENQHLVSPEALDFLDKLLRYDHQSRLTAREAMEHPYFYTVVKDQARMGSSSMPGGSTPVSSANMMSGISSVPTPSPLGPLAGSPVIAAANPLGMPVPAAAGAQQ
Sequence (P67870 whole entry partner, species assumed): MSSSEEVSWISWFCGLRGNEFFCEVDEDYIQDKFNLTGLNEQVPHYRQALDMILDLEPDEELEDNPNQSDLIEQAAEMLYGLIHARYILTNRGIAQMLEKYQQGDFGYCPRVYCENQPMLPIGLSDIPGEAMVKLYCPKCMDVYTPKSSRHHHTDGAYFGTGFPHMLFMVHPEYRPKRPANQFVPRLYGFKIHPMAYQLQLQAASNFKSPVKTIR

Row | SMILES | IC50
1 | N#Cc1cnc2c(NC3CC3)nc(Nc3cc(C(F)F)cc(N4CCN(C5COC5)CC4)c3Cl)nn12 [Example 242, 2-((2-Chloro-5-(difluoromethyl)-3-(4-(oxetan-3-yl)piperazin-1-yl)phenyl)amino)-4-(cyclopropylamino)imidazo[2,1-f][1,2,4]triazine-7-carbonitrile] | 1.3 nM
2 | CC1(N2CCOCC2)CCN(c2cc(C(F)F)cc(Nc3nc(NC4CC4)c4ncc(C#N)n4n3)c2Cl)CC1 [Example 244, 2-((2-chloro-5-(difluoromethyl)-3-(4-methyl-4-(4-morpholinyl)-1-piperidinyl)phenyl)amino)-4-(cyclopropylamino)imidazo[2,1-f][1,2,4]triazine-7-carbonitrile] | 0.97 nM
3 | CC1(N)CCN(c2cc(C(F)F)cc(Nc3nc(NC4CC4)c4ncc(C#N)n4n3)c2Cl)CC1 [Example 245, 2-((3-(4-amino-4-methyl-1-piperidinyl)-2-chloro-5-(difluoromethyl)phenyl)amino)-4-(cyclopropylamino)imidazo[2,1-f][1,2,4]triazine-7-carbonitrile] | 0.51 nM
4 | N#Cc1cnc2c(NC3CC3)nc(Nc3cc(C(F)F)cc(N4CCNCC4)c3Cl)nn12 [Example 246, 2-((2-chloro-5-(difluoromethyl)-3-(1-piperazinyl)phenyl)amino)-4-(cyclopropylamino)imidazo[2,1-f][1,2,4]triazine-7-carbonitrile] | 0.96 nM
5 | N#Cc1cnc2c(NC3CC3)nc(Nc3cc(C(F)F)cc(N4CCN(C5CCOCC5)CC4)c3Cl)nn12 [Example 247, 2-((2-chloro-5-(difluoromethyl)-3-(4-(tetrahydro-2H-pyran-4-yl)-1-piperazinyl)phenyl)amino)-4-(cyclopropylamino)imidazo[2,1-f][1,2,4]triazine-7-carbonitrile] | 1.74 nM
6 | N#Cc1cnc2c(NC3CC3)nc(Nc3cc(C(F)F)cc(NCC(O)CO)c3Cl)nn12 (stereo not drawn) [Example 254, 2-((2-chloro-5-(difluoromethyl)-3-((2,3-dihydroxypropyl)amino)phenyl)amino)-4-(cyclopropylamino)imidazo[2,1-f][1,2,4]triazine-7-carbonitrile] | 0.68 nM
7 | N#Cc1cnc2c(NC3CC3)nc(Nc3cc(C(F)F)cc(N4CCC(N5CC(F)C5)CC4)c3Cl)nn12 [Example 258, 2-((2-chloro-5-(difluoromethyl)-3-(4-(3-fluoro-1-azetidinyl)-1-piperidinyl)phenyl)amino)-4-(cyclopropylamino)imidazo[2,1-f][1,2,4]triazine-7-carbonitrile] | 1.93 nM
8 | CC(C)(O)C1CCN(C2CN(c3cc(C(F)F)cc(Nc4nc(NC5CC5)c5ncc(C#N)n5n4)c3Cl)C2)CC1 [Example 259, 2-((2-chloro-5-(difluoromethyl)-3-(3-(4-(1-hydroxy-1-methylethyl)-1-piperidinyl)-1-azetidinyl)phenyl)amino)-4-(cyclopropylamino)imidazo[2,1-f][1,2,4]triazine-7-carbonitrile] | 1.29 nM
9 | CC1(CN2CCN(c3cc(C(F)F)cc(Nc4nc(NC5CC5)c5ncc(C#N)n5n4)c3Cl)CC2)COC1 [Example 264, 2-((2-chloro-5-(difluoromethyl)-3-(4-((3-methyl-3-oxetanyl)methyl)-1-piperazinyl)phenyl)amino)-4-(cyclopropylamino)imidazo[2,1-f][1,2,4]triazine-7-carbonitrile] | 2.97 nM
10 | CC(=O)N1CC(N2CCN(c3cc(C(F)F)cc(Nc4nc(NC5CC5)c5ncc(C#N)n5n4)c3Cl)CC2)C1 [Example 266, 2-((3-(4-(1-acetyl-3-azetidinyl)-1-piperazinyl)-2-chloro-5-(difluoromethyl)phenyl)amino)-4-(cyclopropylamino)imidazo[2,1-f][1,2,4]triazine-7-carbonitrile] | 2.97 nM
11 | CC(O)C1(N2CCN(c3cc(C(F)F)cc(Nc4nc(NC5CC5)c5ncc(C#N)n5n4)c3Cl)CC2)COC1 (stereo not drawn) [Example 271, 2-((2-chloro-5-(difluoromethyl)-3-(4-(3-(1-hydroxyethyl)-3-oxetanyl)-1-piperazinyl)phenyl)amino)-4-(cyclopropylamino)imidazo[2,1-f][1,2,4]triazine-7-carbonitrile] | 1.22 nM
12 | N#Cc1cnc2c(NC3CC3)nc(Nc3cc(C(F)F)cc(N4CCN(C5CS(=O)(=O)C5)CC4)c3Cl)nn12 [Example 272, 2-((2-chloro-5-(difluoromethyl)-3-(4-(1,1-dioxidothietan-3-yl)piperazin-1-yl)phenyl)amino)-4-(cyclopropylamino)imidazo[2,1-f][1,2,4]triazine-7-carbonitrile] | 0.58 nM
13 | CC1(C(=O)N2CCN(c3cc(C(F)F)cc(Nc4nc(NC5CC5)c5ncc(C#N)n5n4)c3Cl)CC2)COC1 [Example 273, 2-((2-chloro-5-(difluoromethyl)-3-(4-((3-methyl-3-oxetanyl)carbonyl)-1-piperazinyl)phenyl)amino)-4-(cyclopropylamino)imidazo[2,1-f][1,2,4]triazine-7-carbonitrile] | 2.11 nM
14 | N#Cc1cnc2c(NC3CC3)nc(Nc3cc(C(F)F)cc(N4CCOCC4)c3Cl)nn12 [Example 275, 2-((2-chloro-5-(difluoromethyl)-3-(4-morpholinyl)phenyl)amino)-4-(cyclopropylamino)imidazo[2,1-f][1,2,4]triazine-7-carbonitrile] | 3.36 nM
15 | N#Cc1cnc2c(NC3CC3)nc(Nc3cc(C(F)F)cc(N4CCC(C(CO)CO)CC4)c3Cl)nn12 [Example 277, 2-((2-chloro-5-(difluoromethyl)-3-(4-(2-hydroxy-1-(hydroxymethyl)ethyl)-1-piperidinyl)phenyl)amino)-4-(cyclopropylamino)imidazo[2,1-f][1,2,4]triazine-7-carbonitrile] | 2.56 nM
16 | CN1CCN(C2CN(c3cc(C(F)F)cc(Nc4nc(NC5CC5)c5ncc(C#N)n5n4)c3Cl)C2)CC1 [Example 278, 2-((2-chloro-5-(difluoromethyl)-3-(3-(4-methyl-1-piperazinyl)-1-azetidinyl)phenyl)amino)-4-(cyclopropylamino)imidazo[2,1-f][1,2,4]triazine-7-carbonitrile] | 0.86 nM
17 | COC(=O)NC1CCN(c2cc(C#N)cc(Nc3nc(NC4CC4)c4ncc(C#N)n4n3)c2Cl)CC1(C)C (stereo not drawn) [Example 286, methyl (1-(2-chloro-5-cyano-3-((7-cyano-4-(cyclopropylamino)imidazo[2,1-f][1,2,4]triazin-2-yl)amino)phenyl)-3,3-dimethyl-4-piperidinyl)carbamate] | 4.4 nM
18 | COC(=O)N[C@H]1CN(c2cc(C#N)cc(Nc3nc(NC4CC4)c4ncc(C#N)n4n3)c2Cl)C[C@H]1CF [Example 287, methyl ((3R,4R)-1-(2-chloro-5-cyano-3-((7-cyano-4-(cyclopropylamino)imidazo[2,1-f][1,2,4]triazin-2-yl)amino)phenyl)-4-(fluoromethyl)-3-pyrrolidinyl)carbamate] | 1.17 nM

Other lines, results leading:

Row | IC50 | SMILES
19 | 2.08 nM | COC(=O)N[C@@H]1CCN(c2cc(C(F)F)cc(Nc3nc(NC4CC4)c4ncc(C#N)n4n3)c2Cl)C[C@H]1O [Example 243, methyl (3R,4R)-1-(2-chloro-3-(7-cyano-4-(cyclopropylamino)imidazo[1,2-f][1,2,4]triazin-2-ylamino)-5-(difluoromethyl)phenyl)-3-hydroxypiperidin-4-ylcarbamate]
20 | 3.27 nM | N#Cc1cnc2c(NC3CC3)nc(Nc3cc(C(F)F)cc(N4CCN(CC(F)F)CC4)c3Cl)nn12 [Example 248, 2-((2-chloro-3-(4-(2,2-difluoroethyl)-1-piperazinyl)-5-(difluoromethyl)phenyl)amino)-4-(cyclopropylamino)imidazo[2,1-f][1,2,4]triazine-7-carbonitrile]
21 | 0.53 nM | N#Cc1cnc2c(NC3CC3)nc(Nc3cc(C(F)F)cc(N4CCC(O)CC4)c3Cl)nn12 [Example 255, 2-((2-chloro-5-(difluoromethyl)-3-(4-hydroxy-1-piperidinyl)phenyl)amino)-4-(cyclopropylamino)imidazo[2,1-f][1,2,4]triazine-7-carbonitrile]
22 | 0.75 nM | N#Cc1cnc2c(NC3CC3)nc(Nc3cc(C(F)F)cc(N4CCC(NC5COC5)CC4)c3Cl)nn12 [Example 256, 2-((2-chloro-5-(difluoromethyl)-3-(4-(3-oxetanylamino)-1-piperidinyl)phenyl)amino)-4-(cyclopropylamino)imidazo[2,1-f][1,2,4]triazine-7-carbonitrile]
23 | 0.97 nM | CC1(O)CN(C2CCN(c3cc(C(F)F)cc(Nc4nc(NC5CC5)c5ncc(C#N)n5n4)c3Cl)CC2)C1 [Example 257, 2-((2-chloro-5-(difluoromethyl)-3-(4-(3-hydroxy-3-methyl-1-azetidinyl)-1-piperidinyl)phenyl)amino)-4-(cyclopropylamino)imidazo[2,1-f][1,2,4]triazine-7-carbonitrile]
24 | 2.12 nM | COC1CCN(C2CN(c3cc(C(F)F)cc(Nc4nc(NC5CC5)c5ncc(C#N)n5n4)c3Cl)C2)CC1 [Example 260, 2-((2-chloro-5-(difluoromethyl)-3-(3-(4-methoxy-1-piperidinyl)-1-azetidinyl)phenyl)amino)-4-(cyclopropylamino)imidazo[2,1-f][1,2,4]triazine-7-carbonitrile]
25 | 0.82 nM | N#Cc1cnc2c(NC3CC3)nc(Nc3cc(C(F)F)cc(N4CCN(C5(CCO)COC5)CC4)c3Cl)nn12 [Example 270, 2-((2-chloro-5-(difluoromethyl)-3-(4-(3-(2-hydroxyethyl)-3-oxetanyl)-1-piperazinyl)phenyl)amino)-4-(cyclopropylamino)imidazo[2,1-f][1,2,4]triazine-7-carbonitrile]
26 | 0.76 nM | N#Cc1cnc2c(NC3CC3)nc(Nc3cc(C(F)F)cc(N4CC(N5CCOCC5)C4)c3Cl)nn12 [Example 279, 2-((2-chloro-5-(difluoromethyl)-3-(3-(4-morpholinyl)-1-azetidinyl)phenyl)amino)-4-(cyclopropylamino)imidazo[2,1-f][1,2,4]triazine-7-carbonitrile]
27 | 0.79 nM | N#Cc1cc(Nc2nc(NC3CC3)c3ncc(C#N)n3n2)c(Cl)c(N2CC[C@H](N)[C@H](F)C2)c1 [Example 283, 2-((3-((3R,4S)-4-amino-3-fluoropiperidin-1-yl)-2-chloro-5-cyanophenyl)amino)-4-(cyclopropylamino)imidazo[2,1-f][1,2,4]triazine-7-carbonitrile, HCl]
